Where two headings read alike, the source gives them in different places.
How the values were obtained:
[1] = Phase I metabolic stability, rat liver microsomes; format: in vitro ADME; conditions: pooled liver microsomes, pH 7.4
Procedure: For the evaluation of phase I metabolic stability, the compound (1 µM) was incubated with 0.5 mg/mL pooled mouse/rat liver microsomes (Xenotech, Kansas City, MO, USA) or human liver microsomes (Corning, NY, USA), 2 mM NADPH and 10 mM MgCl2 at pH 7.4 for 120 min at 37 °C. The metabolic stability of testosterone, verapamil and ketoconazole were determined in parallel to confirm the enzymatic activity of mouse/rat liver microsomes; for human liver microsomes testosterone, diclofenac and propranolol were used. The incubation was stopped after defined time points by precipitation of aliquots of the assay mixture with two volumes of ice-cold acetonitrile containing internal standard (15 nM diphenhydramine). Samples were stored on ice until the end of the incubation and precipitated protein was removed by centrifugation (15 min, 4 °C, 4000× g).

[2] = tested on: S. aureus; set-up: method as in unpublished data from GBF; conditions: former in vivo efficacy studies; ref unpublished data from GBF; cited from earlier work
[3] = Plasma protein binding (RED), mouse plasma; format: in vitro ADME; conditions: CD-1, mouse, pooled plasma, pH 7.4, mouse plasma
Procedure: Plasma protein binding was determined using the Rapid Equilibrium Dialysis (RED) system (Thermo Fisher Scientific, Waltham, MA, USA). The compound was diluted in pooled murine (CD-1)/human or Wistar rat plasma (Neo Biotech, Nanterre, France) to 10 µM and added to the respective chamber according to the manufacturer’s protocol, followed by addition of PBS pH 7.4 to the opposite chamber. Samples were taken immediately after addition to the plate as well as after 2, 4 and 5 h by mixing 10 µL with 80 µL ice-cold acetonitrile containing 12.5 nM diphenhydramine as internal standard, followed by addition of 10 µL plasma to samples taken from PBS and vice versa. Samples were stored on ice until the end of the incubation and precipitated protein was removed by centrifugation (15 min, 4 °C, 4000× g, 2 centrifugation steps). Concentration of the remaining test compound at the different time points was analyzed by HPLC-MS/MS (TSQ Altis Plus, Thermo Fisher, Dreieich, Germany). The amount of compound bound to protein was calculated using the equation PPB [%] = 100 − 100 × (amount in buffer chamber/amount in plasma chamber).

[4] = in vitro; format: in vitro ADME; conditions: read-out: Plasma Stability t1/2
Procedure: To determine stability in plasma, a similar setup as for the determination of metabolic stability was applied using pooled mouse, human or rat plasma (Neo Biotech, Nanterre, France). Samples were taken by mixing aliquots with four volumes of ice cold acetonitrile containing internal standard (12.5 nM diphenhydramine). The plasma stability of procain, propantheline and diltiazem were determined in parallel to confirm the enzymatic activity.

[5] = set-up: method as in unpublished data from GBF; conditions: ref unpublished data from GBF; cited from earlier work
[6] = tested on: mCherry-expressing S. aureus Newman; assay: Zebrafish embryo model of S. aureus yolk infection, antibiotic treatment efficacy; format: in vivo, Staphylococcus aureus
Procedure: With the aim to study the in vivo efficacy of drugs, 30 hpf zebrafish embryos were infected with 50 CFU of mCherry-expressing S. aureus Newman. Embryos were then left to recover from injection for two hours and subsequently treated with various reference antibiotics. Antibiotic treatment was performed via bath water immersion as well as via microinjection into the yolk (local treatment) and the caudal vein (systemic treatment) to study whether differences in in vivo activity exist between the three administration routes. Survival was assessed daily until 120 hpf. Additionally, the infection was visualized and quantified by means of fluorescence microscopy at 24 h post treatment (hpt). At the end of every experiment, living embryos (and dead embryos, if possible) were homogenized to determine the remaining bacterial count. Five approved antibiotics from different classes were assessed in vivo. The chosen drugs ought to differ in physicochemical properties, such as molecular weight and polarity, in order to detect a pattern between successful administration routes and the physicochemical properties of the drug. Prior to efficacy assessment, drug-mediated toxicity in zebrafish embryos was investigated using the same administration routes (Figure S3). For microinjection, a fixed dose of 20 to 30 mg/kg was used for each antibiotic. The concentration for bath water immersion was based on the minimum inhibitory concentration (MIC) and the maximum tolerated concentration (MTC) of the drug, whereby it is generally recommended to use 50- to 100-fold the antibacterial MIC to see a positive effect.
Pulled glass capillaries for microinjection (Table S2) were prepared using a micropipette puller (P-1000, Sutter Instrument). Dechorionated and anaesthetized embryos were infected with 50 colony-forming units (CFU) of mCherry-expressing S. aureus Newman by microinjection into the yolk sac at 30 hpf. In order to confirm bacterial numbers, an equal volume of bacterial cells was ejected onto Tryptic Soy Agar (TSA) supplemented with 10 µg/mL chloramphenicol before and after the injection. Antibiotic treatment was performed two hours post infection (hpi) via three different administration routes, namely bath water immersion and microinjection into the yolk sac as well as the caudal vein (CV). The infection procedure and treatment of infected embryos are described in details in the supplementary materials (Table S3).
Embryos were transferred individually to microcentrifuge tubes and washed at least three times with sterile PBS. 200 µL of sterile PBS were added and embryos were mechanically homogenized using a micropestle (Carl Roth, Karlsruhe, Germany). 800 µL of sterile PBS were added to reach a final volume of 1 mL. The homogenates were diluted and plated on tryptic soy agar (TSA). CFU counts were determined after 24 h of incubation at 37 °C.
Embryos were placed in a black 96-well plate (Falcon; Thermo Fisher, Dreieich, Germany) and cryo-anaesthetized by submersion into ice water. Images for quantitative fluorescence analysis were acquired using the following equipment: a fluorescence stereo microscope (M205 FA, Leica Microsystems, Wetzlar, Germany) in combination with a fluorescence illuminator (X-Cite, 200DC, Excelitas Technologies, Waltham, MA, USA) and a microscope camera (DFC7000 T, Leica Microsystems). Quantification of fluorescence was performed using Fiji ImageJ version 2.1.0. Fluorescent Integrated Density (FID) was determined by counting the number of pixels with fluorescence intensity greater than the threshold (10) and multiplying the count with its mean intensity. For confocal imaging, embryos were anaesthetized through immersion in tricaine (945 µM, Sigma-Aldrich) and immobilized in 1.2% low-melting agarose in a flat-bottom 96-well plate. Confocal images and time-lapse series were acquired using the Celldiscoverer 7 with LSM 900 (Zeiss) together with the 5×/0.35 Plan-APOCHROMAT objective.
2. […]

For `C/C(=C\[C@H](C)CCCCC(=O)O)[C@@H]1O[C@@H]2C=C[C@H]1OC(=O)\C=C/C=C\C=C\[C@H]1O[C@@H]3C[C@H]1O[C@@H](/C=C/C[C@H]1O[C@H](C[C@H](O)[C@H]1C)[C@@H](O)[C@@H](O)/C=C/CC/C=C/C2)[C@@H]3C` [sorangicin A], the microsomal CLint at 1 µM [1] is given as 239 ± 155 µL/min/mg, the “protective effect in mouse models of S. aureus infection” value [2] is given as “failed to show a protective effect” and the fraction unbound at 10 µM ([3]; 10 µM, read-out: PPB (converted)) is given as 0.121. It also gave a fraction unbound at 10 µM ([3]; read-out: free fraction) greater than 0.1, a half-life ([4]; human plasma) greater than 4 h and a half-life at 1 µM ([4]; rat plasma) greater than 4 h. The “outcome in experimental infection models in rats” value [5] was “successful”, the “effect on survival of infected embryos” value ([6]; bath water immersion 50-100x MIC) was “did not show any protective effect” and the “difference between treated and untreated embryos” value ([6]; bath water supplemented with 1000x MIC) was “no difference”. The “bacterial fluorescence (FID) at 24 hpt” value ([6]; caudal vein microinjection) was “Bacterial fluorescence was suppressed”, the “embryos succumbed to the infection” value ([6]; caudal vein microinjection 2 hpi, 50 CFU yolk infection) was 75% and the “effect on survival of infected embryos” value ([6]; caudal vein microinjection 20-30 mg/kg, 2 hpi) was “significantly extended the lifespan”. The bacterial numbers ([6]; caudal vein microinjection, succumbed embryos) was “exceeding 10^4 CFU/embryo”, the “bacteria recovered (CFU plating) at 120 hpf” value ([6]; yolk microinjection) was “complete eradication of bacteria” and the “bacterial fluorescence (FID) at 24 hpt” value ([6]; yolk microinjection) was “reduced bacterial burden”. The “effect on survival of infected embryos” value ([6]; yolk microinjection 20-30 mg/kg, 2 hpi) was “significantly increased the survival rate”.

— article PMC10454396 (International Journal of Molecular Sciences, 2023)
